Laboratory results published in ChEMBL document CHEMBL3352715, “Synthesis of new verapamil analogues and their evaluation in combination with rifampicin against Mycobacterium tuberculosis and molecular docking studies in the binding site of efflux protein Rv1258c” (2014).

Tests used:
[1] = test system: Mycobacterium tuberculosis; assay: Inhibition of multidrug resistance efflux pump Rv1258c in Mycobacterium tuberculosis H37Rv assessed as rifampicin MIC99 by MABA method
[2] = test system: Mycobacterium tuberculosis; assay: Inhibition of multidrug resistance efflux pump Rv1258c in Mycobacterium tuberculosis H37Rv assessed as reduction in rifampicin MIC99 by MABA method
[3] = test system: Mycobacterium tuberculosis; assay: Inhibition of multidrug resistance efflux pump Rv1258c in Mycobacterium tuberculosis H37Rv assessed as potentiation of rifampicin-induced antimycobacterial activity by MABA method based Chequerboard synergy assay

Structure (SMILES)	MIC99 [1] [nM]	fold change (FC) [2]	fractional inhibitory concentration index (FICI) [3]
COc1ccc(CCN(CCCC(C#N)(c2ccc(OC)c(OC)c2)C(C)C)C2CC2)cc1OC (centres undefined)	4.2	2	0.75
CCN(CCCC(C#N)(c1ccc(OC)c(OC)c1)C(C)C)CCc1ccc(OC)c(OC)c1 (centres undefined)	8.3		1
CCCN(CCCC(C#N)(c1ccc(OC)c(OC)c1)C(C)C)CCc1ccc(OC)c(OC)c1 (centres undefined)	8.3		0.78
COc1ccc(CCN(CCCC(C#N)(c2ccc(OC)c(OC)c2)C(C)C)Cc2ccccc2)cc1OC (centres undefined)	2.1	4	0.3
COc1ccc(N(C)CCCC(C#N)(c2ccc(OC)c(OC)c2)C(C)C)cc1OC (centres undefined)	8.3		
COc1ccc(CN(C)CCCC(C#N)(c2ccc(OC)c(OC)c2)C(C)C)cc1OC (centres undefined)	8.3		
COc1ccc(C(C#N)(CCCN2CCCCC2)C(C)C)cc1OC (centres undefined)	4.2	2	1
COc1ccc(C(C#N)(CCCN2CCOCC2)C(C)C)cc1OC (centres undefined)	8.3		1.5
COc1ccc(C(C#N)(CCCN2CCC(O)CC2)C(C)C)cc1OC (centres undefined)	8.3		1.5
COc1ccc(C(C#N)(CCCN2CCC(N3CCCCC3)CC2)C(C)C)cc1OC (centres undefined)	4.2	2	1
COc1ccc(C(C#N)(CCCN2CCC(O)(c3ccccc3)CC2)C(C)C)cc1OC (centres undefined)	4.2	2	1
COc1ccc(C(C#N)(CCCN2CCN(c3ccccc3)CC2)C(C)C)cc1OC (centres undefined)	4.2	2	0.75
COc1ccc(C(C#N)(CCCN2CCN(c3ccccn3)CC2)C(C)C)cc1OC (centres undefined)	2.1	4	0.75
COc1ccc(C(C#N)(CCCN2CCN(c3ccccc3F)CC2)C(C)C)cc1OC (centres undefined)	8.3		1.5
COc1ccc(CCN(C)CCCC(C#N)c2ccc(OC)c(OC)c2)cc1OC (centres undefined)	4.2	2	1
COc1ccc(CCN(C)CCCC(C)(C#N)c2ccc(OC)c(OC)c2)cc1OC (centres undefined)	4.2	2	1
CCC(C#N)(CCCN(C)CCc1ccc(OC)c(OC)c1)c1ccc(OC)c(OC)c1 (centres undefined)	2.1	4	0.75
CCCC(C#N)(CCCN(C)CCc1ccc(OC)c(OC)c1)c1ccc(OC)c(OC)c1 (centres undefined)	2.1	4	0.75
COc1ccc(CCN(C)CCCC(C#N)(c2ccc(OC)c(OC)c2)C2CCCC2)cc1OC (centres undefined)	4.2	2	1
COc1ccc(CCN(C)CCCC(C#N)(c2ccc(OC)c(OC)c2)C2CCCCC2)cc1OC (centres undefined)	2.1	4	1.25
COc1ccc(CCNCCCC(C#N)(c2ccc(OC)c(OC)c2)C(C)C)cc1OC (centres undefined) [NORVERAPAMIL]	4.2	2	0.56
